The source of these data is patent US20160303184A1, “VANCOMYCIN-SUGAR CONJUGATES AND USES THEREOF” (JAWAHARLAL NEHRU CENTRE FOR ADVANCED SCIENTIFIC RESEARCH …, priority 2013, published 2016).

≈ marks a conversion by molar mass, not a printed value. Entries after “also recorded” stand apart in the source; their conditions may differ. Bounds are passed on as bounds.

For experiment [1], the system named is Methicillin-sensitive S. aureus (MTCC 737). Put plainly: MIC, micro-dilution broth, MSSA. Type of experiment: cell-based. As to conditions: MTCC 737; read-out: MIC MSSA. The method, then: (§1) All test compounds were assayed in a micro-dilution broth format. Stock solutions were made by serially diluting the compounds using autoclaved millipore water or broth media. The antibacterial activity of the compounds was determined against methicillin-sensitive S. aureus (MSSA), methicillin-resistant S. aureus (MRSA), vancomycin-intermediate-resistant S. aureus (VISA), vancomycin-sensitive E. faecium (VSE) and vancomycin-resistant E. faecium (VRE). Bacteria, to be tested, were grown for about 10 h in the suitable media, MSSA, MRSA and VISA were grown in yeast-dextrose broth (about 1 g of beef extract, about 2 g of yeast extract, about 5 g of peptone and about 5 g of NaCl in about 1000 mL of sterile distilled water (pH-7)). For solid media, about 5% agar was used along with above mentioned composition. VSE and VRE were cultured in brain heart infusion broth (Himedia). The bacterial samples were freeze dried and stored at −80° C. About 5 μL of these stocks were added to about 3 mL of the nutrient broth and the culture was grown for about 6 h at about 37° C. prior to the experiments. This 6 h grown culture gives about 10^9 cfu/mL and this was determined by spread plating method. The 6 h grown culture was diluted to give effective cell concentration of about 10^5 cfu/mL which was then used for determining MIC. Compounds were serially diluted, in sterile water (2 fold dilution is employed) in a way that the working concentration was about 10 μM for MSSA, MRSA, and VSE while for VRE and VISA it was about 100 μM. About 50 μL of these serial dilutions were added to the wells of 96 well plate followed by the addition of about 150 μL of bacterial solution. The plates were then incubated at about 37° C., 150 rpm in the incubator and O.D at 600 nm was recorded at an interval of about 10 h and 24 h using TECAN (Infinite series, M200 pro) Plate Reader. Each concentration had triplicate values and the whole experiment was done at least twice and the MIC value was determined by taking the average of triplicate. O. D. values for each concentration and plotting it against concentration. The data was then subjected to sigmoidal fitting. From the curve the MIC value was determined, as the point in the curve where the O. D. was similar to that of control having no bacteria.

In experiment [2] the test system is Methicillin-resistant S. aureus (ATCC 33591). Put plainly: MIC, micro-dilution broth, MRSA. Type of experiment: cell-based. As to conditions: ATCC 33591; read-out: MIC MRSA. The protocol:
as §1

Experiment [3] deals with Vancomycin intermediate resistant S. aureus. Briefly: MIC, micro-dilution broth, VISA. Type of experiment: cell-based. As to conditions: read-out: MIC VISA. The protocol:
as §1

The test system of experiment [4] is Vancomycin-sensitive E. faecium (ATCC 19634). Put plainly: MIC, micro-dilution broth, VSE. Type of experiment: cell-based. As to conditions: ATCC 19634; read-out: MIC VSE. The protocol:
as §1
Background: Dilution methods test growth across graded concentrations, often in twofold steps.

Experiment [5] concerns Vancomycin-resistant E. faecium (VanA, ATCC 51559). Briefly: MIC, micro-dilution broth, VRE (VanA). To be noted: E. faecium ATCC 51559; read-out: MIC VRE (VanA). Type of experiment: cell-based. The method, then:
as §1

Experiment [6] deals with Vancomycin-resistant E. faecalis (VanA, ATCC 51575). Briefly: MIC, micro-dilution broth, VRE (VanB). Type of experiment: cell-based. As to conditions: E. faecalis ATCC 51575; read-out: MIC VRE (VanB).
In experiment [7] the test system is methicillin-resistant S. epidermidis clinical isolate. Briefly: MIC, clinical isolate of methicillin-resistant S. epidermidis. Type of experiment: cell-based. To be noted: clinical isolate, methicillin-resistant.
The test system of experiment [8] is methicillin-resistant S. haemolyticus clinical isolate. Put plainly: MIC, clinical isolate of methicillin-resistant S. haemolyticus. Type of experiment: cell-based. As to conditions: clinical isolate, methicillin-resistant; read-out: MIC S. haemolyticus.
For experiment [9], the system named is methicillin-resistant S. aureus clinical isolate. Put plainly: MIC, clinical isolate of methicillin-resistant S. aureus. Type of experiment: cell-based. As to conditions: clinical isolate, methicillin-resistant. The protocol:
as §1

For experiment [10], the system named is VISA. Briefly: Ex-vivo whole blood assay. Type of experiment: cell-based, S. aureus. As to conditions: 3 h incubation in 90% human whole blood. The method, then:
Ex-vivo whole blood assay was performed to compare the abilities of these compounds to retain activity in complex media. To 30 μL of VISA in saline (0.9% NaCl; 10^6 CFU/mL) 10 μL of test compounds (vancomycin and compound 7) and 270 μL of fresh human whole blood were added and incubated, at 37° C. for about 3 h. After the incubation period, antibacterial activity was determined by finding the bacterial titer in the infected blood.

For experiment [11], the system named is VISA. Briefly: In-vivo time dependent whole blood assay. More on the design: species or system S. aureus. To be noted: 12 mg/kg single i.v., CD-1 mice, VISA. The protocol:
The derivative 7 and vancomycin were administered in a single intravenous injection (0.2 mL saline) to normal pathogen-free, female CD-1 mice. Doses of 12 mg kg^−1 were administered to three mice per data point. At the specified time-points (0, 3, 6, 12, 24 and 48 h) mice were euthanized (using ether), blood samples were collected from the ocular puncture. 60 μL of VISA in saline (0.9% NaCl; 10^6 CFU/mL) was added to 540 μL of whole blood which was drawn from the mice and incubated at 37° C. for 3 h. After the incubation period, antibacterial activity was determined by finding the bacterial titer in the infected blood.

Experiment [12] concerns methicillin-resistant vancomycin-intermediate S. aureus (MR-VISA). Briefly: Time-kill assay. Type of experiment: cell-based. As to conditions: 2 μM and 4 μM. The protocol: The bactericidal activity was assessed by the kinetics or the rate at which it affects the killing action of the compound. Briefly methicillin-resistant vancomycin-intermediate S. aureus (MR-VISA) grown in Yeast-Dextrose broth. A starting inoculum of 1.6×10^8 CFU/ml was used as initial bacterial colony count. Vancomycin and compound 7 having final concentrations of 2 μM and 4 μM were inoculated with MR-VISA suspensions having starting inocula of 1.6×10^8 CFU/ml. Bacterial suspension containing specified concentrations of the compound along with negative control (which contains only 0.9% Saline) was incubated at 37° C. with shaking. Aliquots (20 μl) were removed from the cultures at different time intervals and were serially diluted 10-fold in 0.9% saline and plated onto sterile Yeast-Dextrose agar medium. The number of viable cells was determined by plating the 10-fold serial dilution of each sample onto Yeast-dextrose agar medium. Plates were then incubated for 24 h at 37° C., CFU was counted and the total bacterial log 10 CFU/ml was determined.

The MIC is the lowest concentration found to suppress growth. For `CN[C@H](CC(C)C)C(=O)N[C@H]1C(=O)N[C@@H](CC(N)=O)C(=O)N[C@H]2C(=O)N[C@H]3C(=O)N[C@H](C(=O)N[C@H](C(=O)O)c4cc(O)cc(O)c4-c4cc3ccc4O)[C@H](O)c3ccc(c(Cl)c3)Oc3cc2cc(c3O[C@@H]2O[C@H](CO)[C@@H](O)[C@H](O)[C@H]2O[C@H]2C[C@](C)(N)[C@H](O)[C@H](C)O2)Oc2ccc(cc2Cl)[C@H]1O` [Vancomycin], the MIC is given as 0.63 µM (≈ 0.913 µg/mL) in [1]; 0.63 µM (≈ 0.913 µg/mL) in experiment [2]; 13.0 µM (≈ 18.8 µg/mL) in experiment [3]; 0.6 µM (≈ 0.87 µg/mL) in experiment [4]; >700 µM in experiment [5]; 250 µM (≈ 362 µg/mL) in [6]. Also, in experiment [8], the MIC worked out at 1.4 µM (≈ 2.03 µg/mL). The “MIC S. epidermidis” value in [7] came out at 0.9 µM (≈ 1.3 µg/mL). The “MIC S. aureus” value in experiment [9] came to 0.7 µM (≈ 1.01 µg/mL). Also, the “bactericidal activity in whole blood” value in the experiment on VISA [10] was “slow killing”. The “antibacterial activity of blood drawn at 3 h” value in the experiment on VISA [11] was “did not show any activity; also recorded: nominal activity”. The “antibacterial activity of blood drawn at 6 h” value in the experiment on VISA [11] is given as “did not show any activity”. The killing kinetics result in experiment [12] is “relatively slow killing or bacteriostatic effect”.
